In US12102432B2, “Uses of transdermal glomerular filtration rate measurement in continuous renal replacement therapy” (MediBeacon Inc., priority 2018, dated 2024):

Tests used:
[1] = In vivo clearance by CVVHD in porcine model with bilateral nephrectomy; set-up: species or system Swine
[2] = In vitro continuous hemofiltration (CVVH) model, sieving coefficient; assay type: in vitro ADME, bovine; details: for Mean sieving coefficient: CVVH
Procedure: The procedure for the CVVH study was conducted using the model CVVH system illustrated in FIG. 5. The CLTM of urea and MB-102 were evaluated with different blood flow rates, ultrafiltration rate (Quf) and hemodiafilters (Table 1). In a closed-loop system, the formed effluent was returned to the blood as a post-filter replacement fluid downstream from the post-hemodiafilter blood sampling port. Pre- and post-hemodiafilter blood samples, and effluent samples were collected concurrently. Six experiments were conducted for each hemodiafilter, and new hemodiafilters and CRRT apparatus were used for each experiment. Sieving coefficient (SC) and CLTM were calculated as follows:
[formula] where Sc is the sieving coefficient; Cuf is the concentration in the effluent; Ca is the concentration of the solute in the pre-filter; and Cv is the concentration of the solute in the post-filter. CLconv=SC×QUF Equation (4) wherein CLconv is the convective clearance for the post-filter replacement; QUF is the ultrafiltration rate.
(§1) All blood samples were collected and centrifuged at 3000 rpm for 10 minutes. The plasma and effluent samples were transferred to cryovials in duplicate and stored at −80° C. until analysis. BUN concentrations were analyzed with Advia 1800 (Siemens Healthcare Diagnostic Inc., Tarrytown, N.Y., USA) having a lower limit of quantification of 5 mg/dL.
(§2) Similarly, six CVVH and CVVHD experiments with each hemodiafilter were used to detect a 25% difference in MB-102 CLTM between hemodiafilters. Assumptions used in these calculations included: a power of 90% and a standard deviation of 10% with a significance level of p<0.05. A two-tailed, unpaired t-test was used to compare differences between the two hemodiafilters, and the analysis of variance was used to compare different QUF and Qd within each hemodiafilter type.

[3] = In vitro continuous hemodialysis (CVVHD) model, saturation coefficient; assay type: in vitro ADME, bovine; details: for Saturation coefficient (mean ± SD): blood flow 200 mL/min
Procedure: For CVVHD experiments, the CLTM was assessed using a previously validated in vitro CVVHD model as illustrated in FIG. 6. Commonly used effluent flow rates of 16, 33, 50, and 100 mL/min, and a blood flow rate of 200 mL/min were used. Effluent was prepared according to directions from the manufacturer by mixing sodium bicarbonate powder (NATURALYTE® 4000, Fresenius Medical Care, Waltham, Mass., USA) with distilled water in a 45:1 ratio. After adding MB-102 and urea to the blood, it was recirculated through the circuit for 5 min for uniform coating of the extracorporeal circuit. A single-pass mode of the CVVHD procedure with four different flow rates was run in random order for each hemodiafilter. Blood samples were collected from the pre- and post-filter ports, and spent effluent samples were taken from the effluent port 5 min after initiation of the CVVHD experiments at all four effluent flow rates. These experiments were conducted on 6 new hemodiafilters and CRRT tubing sets. Saturation coefficient (SA) and CLTM were calculated as follows:
[formula] CLdiff=(SA×Qd) Equation (6)
where SA is the saturation coefficient; CUF is the concentration in the effluent; Ca is the concentration of the solute in the pre-filter; CV is the concentration of the solute in the post-filter; CLdiff is the diffusion clearance for post-filter replacement; Qd is the effluent flow rate.
as §1, §2

[4] = stated as pharmacokinetic parameter, no test described; cited from earlier work
[5] = assembly on chest (QLS26), blood flow rate 100, effluent flow rate 20 mL/min, 1st of four regions
[6] = assembly on chest (QLS26), blood flow rate 200, effluent flow rate 35 mL/min, 2nd of four regions
[7] = assembly on chest (QLS26), blood flow rate 200, effluent flow rate 35 mL/min, 4th of four regions
[8] = assembly on sternum (QLS25), blood flow rate 100, effluent flow rate 20 mL/min, 1st of four regions
[9] = assembly on sternum (QLS25), blood flow rate 100, effluent flow rate 20 mL/min, 3rd of four regions
[10] = assembly on sternum (QLS25), blood flow rate 200, effluent flow rate 35 mL/min, 2nd of four regions
[11] = assembly on sternum (QLS25), blood flow rate 200, effluent flow rate 35 mL/min, 4th of four regions

## Nc1nc(C(=O)N[C@H](CO)C(=O)O)c(N)nc1C(=O)N[C@H](CO)C(=O)O [MB-102, (2R,2′R)-2,2′-((3,6-diaminopyrazine-2,5-dicarbonyl)bis(azanediyl))bis(3-hydroxypropanoic acid)]
[1]; [5]
  MB-102 Clearance Rate Constant: 0.1439 h⁻¹
  RDTC: 6.94 h
[1]; assembly on chest (QLS26), blood flow rate 100, effluent flow rate 20 mL/min, 3rd of four regions
  RDTC: 11.87 h
[1]; [6]
  MB-102 Clearance Rate Constant: 0.1769 h⁻¹
  RDTC: 5.65 h
[1]; [7]
  MB-102 Clearance Rate Constant: 0.1192 h⁻¹
  RDTC: 8.39 h
[1]; [8]
  MB-102 Clearance Rate Constant: 0.1174 h⁻¹
  RDTC: 8.52 h
[1]; [9]
  MB-102 Clearance Rate Constant: 0.0871 h⁻¹
  RDTC: 11.48 h
[1]; [10]
  MB-102 Clearance Rate Constant: 0.1870 h⁻¹
  RDTC: 5.35 h
[1]; [11]
  MB-102 Clearance Rate Constant: 0.1288 h⁻¹
  RDTC: 7.76 h
[2]; HF1400, ultrafiltration rate 16.7 mL/min
  Mean sieving coefficient: 1.14 ± 0.06
[2]; HF1400, ultrafiltration rate 33.3 mL/min
  Mean sieving coefficient: 1.17 ± 0.03
[2]; HF1400, ultrafiltration rate 50 mL/min
  Mean sieving coefficient: 1.18 ± 0.05
[2]; M150, ultrafiltration rate 16.7 mL/min
  Mean sieving coefficient: 1.17 ± 0.12
[2]; M150, ultrafiltration rate 33.3 mL/min
  Mean sieving coefficient: 1.17 ± 0.07
[2]; M150, ultrafiltration rate 50 mL/min
  Mean sieving coefficient: 1.16 ± 0.07
[2]; three different Quf, both hemodiafilters
  Sieving coefficient (SC): approximately 1
[3]; CVVHD, HF1400, Qd 16.7 mL/min
  Saturation coefficient (mean ± SD): 1.27 ± 0.07
[3]; CVVHD, HF1400, Qd 33.3 mL/min
  Saturation coefficient (mean ± SD): 1.27 ± 0.09
[3]; CVVHD, HF1400, Qd 50 mL/min
  Saturation coefficient (mean ± SD): 1.37 ± 0.07
[3]; CVVHD, HF1400, Qd 100 mL/min
  Saturation coefficient (mean ± SD): 1.02 ± 0.20
[3]; CVVHD, M150, Qd 16.7 mL/min
  Saturation coefficient (mean ± SD): 1.06 ± 0.17
[3]; CVVHD, M150, Qd 33.3 mL/min
  Saturation coefficient (mean ± SD): 1.11 ± 0.06
[3]; CVVHD, M150, Qd 50 mL/min
  Saturation coefficient (mean ± SD): 1.60 ± 0.06
[3]; CVVHD, M150, Qd 100 mL/min
  Saturation coefficient (mean ± SD): 0.84 ± 0.04
[3]; CVVHD, both hemodiafilters
  Saturation coefficient (SA), overall summary in text: approximately 1
[3]; low effluent flow rates (16-50 mL/min)
  mean SA values: approximately unity
[4]
  protein binding: 0%
